Experimental data published in the NIST ThermoML archive (doi:10.1016/j.jct.2011.12.010).
± gives the expanded uncertainty stated by the source.

Assays:
[1] = for molar entropy: 101.33 kPa, Vacuum adiabatic calorimetry
[2] = Molar enthalpy of transition or fusion; settings: Crystal; Adiabatic calorimetry

Structure (SMILES): CC(C)(C)Cc1ccccc1 [(2,2-dimethylpropyl)benzene]
- molar entropy ([1]; 5 K, Crystal): 0.1197 ± 0.017 J/K/mol
- molar entropy ([1]; 10 K, Crystal): 0.956 ± 0.027 J/K/mol
- molar entropy ([1]; 15 K, Crystal): 3.026 ± 0.047 J/K/mol
- molar entropy ([1]; 20 K, Crystal): 6.298 ± 0.07 J/K/mol
- molar entropy ([1]; 25 K, Crystal): 10.58 ± 0.09 J/K/mol
- molar entropy ([1]; 30 K, Crystal): 15.48 ± 0.11 J/K/mol
- molar entropy ([1]; 35 K, Crystal): 20.64 ± 0.12 J/K/mol
- molar entropy ([1]; 40 K, Crystal): 25.96 ± 0.14 J/K/mol
- molar entropy ([1]; 45 K, Crystal): 31.32 ± 0.16 J/K/mol
- molar entropy ([1]; 50 K, Crystal): 36.64 ± 0.17 J/K/mol
- molar entropy ([1]; 60 K, Crystal): 46.98 ± 0.2 J/K/mol
- molar entropy ([1]; 70 K, Crystal): 57.07 ± 0.23 J/K/mol
- molar entropy ([1]; 80 K, Crystal): 66.82 ± 0.26 J/K/mol
- molar entropy ([1]; 90 K, Crystal): 76.28 ± 0.41 J/K/mol
- molar entropy ([1]; 100 K, Crystal): 85.56 ± 0.43 J/K/mol
- molar entropy ([1]; 110 K, Crystal): 94.62 ± 0.44 J/K/mol
- molar entropy ([1]; 120 K, Crystal): 103.5 ± 0.5 J/K/mol
- molar entropy ([1]; 130 K, Crystal): 112.2 ± 0.5 J/K/mol
- molar entropy ([1]; 140 K, Crystal): 120.9 ± 0.5 J/K/mol
- molar entropy ([1]; 150 K, Crystal): 129.4 ± 0.5 J/K/mol
- molar entropy ([1]; 160 K, Crystal): 137.8 ± 0.5 J/K/mol
- molar entropy ([1]; 170 K, Crystal): 146.1 ± 0.5 J/K/mol
- molar entropy ([1]; 180 K, Crystal): 154.2 ± 0.5 J/K/mol
- molar entropy ([1]; 190 K, Crystal): 162.5 ± 0.5 J/K/mol
- molar entropy ([1]; 200 K, Crystal): 170.5 ± 0.6 J/K/mol
- molar entropy ([1]; 210 K, Crystal): 178.6 ± 0.6 J/K/mol
- molar entropy ([1]; 220 K, Crystal): 186.7 ± 0.6 J/K/mol
- molar entropy ([1]; 230 K, Crystal): 194.6 ± 0.6 J/K/mol
- molar entropy ([1]; 240 K, Crystal): 202.5 ± 0.6 J/K/mol
- molar entropy ([1]; 250 K, Crystal): 210.4 ± 0.6 J/K/mol
- molar entropy ([1]; 255.43 K, Crystal): 214.7 ± 0.6 J/K/mol
- molar entropy ([1]; 255.43 K, Liquid): 274.9 ± 0.7 J/K/mol
- molar entropy ([1]; 260 K, Liquid): 279.4 ± 0.7 J/K/mol
- molar entropy ([1]; 270 K, Liquid): 288.9 ± 0.7 J/K/mol
- molar entropy ([1]; 280 K, Liquid): 298.4 ± 0.7 J/K/mol
- molar entropy ([1]; 290 K, Liquid): 307.7 ± 0.8 J/K/mol
- molar entropy ([1]; 298.15 K, Liquid): 315.2 ± 0.8 J/K/mol
- molar entropy ([1]; 300 K, Liquid): 316.9 ± 0.8 J/K/mol
- molar entropy ([1]; 310 K, Liquid): 325.8 ± 0.8 J/K/mol
- molar entropy ([1]; 320 K, Liquid): 334.7 ± 0.8 J/K/mol
- molar entropy ([1]; 330 K, Liquid): 343.4 ± 0.8 J/K/mol
- molar entropy ([1]; 340 K, Liquid): 351.9 ± 0.8 J/K/mol
- molar entropy ([1]; 350 K, Liquid): 360.4 ± 0.8 J/K/mol
- Triple point temperature ([1]; Crystal, Adiabatic calorimetry): 255.43 ± 0.05 K
- Molar enthalpy of transition or fusion [2]: 3.676 ± 0.0239 kcal/mol
